Key:
Type in all cases: in vivo, cynomolgus monkey
[1] = Effects on body weight and lean body mass, 4-week administration
Protocol: (§1) The monkeys were divided into five groups by weight randomization (MiTOX system ver2.0, Mitsui E & S Systems Research Inc) on the last day of the habituation period. SARM‐2f was orally administered at daily doses of 1, 3, or 10 mg/kg for 4 weeks between 9:00 and 11:00 hours, using 0.5% w/v methylcellulose as the vehicle. TE was injected intramuscularly on Day 0 and Day 13; the dosing start was set at Day 0 at a dose of 2 mg/kg using sesame oil as the vehicle. The route of administration and dose of TE was selected according to the route and dose mentioned in the clinical indications. BW was measured every week before dosing (between 8:30 and 9:00 hours), and LBM was measured every 2 weeks after dosing and before feeding (between 11:30 and 14:30 hours) using an X‐ray bone density measuring device (Discovery, HOLOGIC USA). Blood collection for lipid profiles was conducted on the day after the completion of the four‐week multiple administration of SARM‐2f or TE. Plasma levels of total cholesterol (T‐chol), HDL‐c, low‐density lipoprotein cholesterol (LDL‐c), triglyceride (TG), alanine aminotransferase (ALT), and […] (AST) were measured by an automatic JCA‐BM8 analysis system (JEOL Ltd.). Plasma lipoprotein (a) (Lp (a)) levels were measured using a multiplate absorbance measuring system (Multiscan Ascent, Thermo Fisher Scientific KK).
(§2) In the reporter assays, EC50 was calculated using Graph Pad Prism version 6. The effects of SARM‐2f or TE on BW and LBM were analyzed by t test, with Bonferroni correction for repeated measurements.

[2] = Pharmacokinetic study, oral single and 14-day dosing
Protocol: Monkeys were orally treated with SARM‐2f (10 mg/kg) as a single dose or daily administration for 14 consecutive days; blood was collected from the femoral vein at 0.5, 1, 2, 4, 8, and 24 hours after the single dose and 14 doses (n = 2 each sex). The blood samples were centrifuged (4°C, 12 000 g, 1 minutes) to obtain plasma. Plasma concentrations of SARM‐2f were measured by liquid chromatography/tandem mass spectrometry.

[3] = Plasma lipid levels after 4-week treatment; conditions: after 4 wks, SARM‐2f 1, 3, 10 mg/kg daily p.o., vs vehicle
Protocol: as §1, with “KK). […]” for “KK).”

[4] = Liver function tests (AST, ALT) after 4-week treatment; conditions: after 4 wks; SARM‐2f 1, 3, 10 mg/kg daily p.o.; TE 2 mg/kg every 2 wks; vs vehicle
Protocol: as §1, §2

[5] = 10 mg/kg p.o., 1st (single) dose, total N = 4
[6] = 10 mg/kg p.o., 1st dose, female N = 2
[7] = 10 mg/kg p.o., 1st dose, male N = 2
[8] = 10 mg/kg/day p.o., 14th dose, female N = 2
[9] = 10 mg/kg/day p.o., 14th dose, male N = 2
[10] = 10 mg/kg/day p.o., 14th dose, total N = 4

SMILES: CC[C@H]1[C@@H](O)CC(=O)N1c1ccc(C#N)c(C(F)(F)F)c1 [SARM‐2f, 4′‐[(2S,3S)‐2‐Ethyl‐3‐hydroxy‐5‐oxopyrrolidin‐1‐yl]‐2′‐(trifluoromethyl) benzonitrile]
- BW increase from pre‐dosing level ([1]; 1 mg/kg daily p.o., Day 13, male monkeys n = 3): 6.2%
- LBM increase from pre‐dosing level ([1]; 1 mg/kg daily p.o., Day 13, n = 3): 4.3%
- BW increase from pre‐dosing level ([1]; 1 mg/kg daily p.o., Day 27, male monkeys n = 3): 7.7%
- LBM increase from pre‐dosing level ([1]; 1 mg/kg daily p.o., Day 28, n = 3): 6.1%
- BW increase from pre‐dosing level ([1]; 3 mg/kg daily p.o., Day 13, male monkeys n = 3): 6.0%
- LBM increase from pre‐dosing level ([1]; 3 mg/kg daily p.o., Day 13, n = 3): 4.0%
- BW increase from pre‐dosing level ([1]; 3 mg/kg daily p.o., Day 27, male monkeys n = 3): 3.3%
- LBM increase from pre‐dosing level ([1]; 3 mg/kg daily p.o., Day 28, n = 3): 3.1%
- effective dose to increase BW by approximately 10% ([1]; monkeys, daily p.o., 4 weeks): 10 mg/kg
- AUC 0‐24 h [2, 5]: 8152 ± 945 ng·h/mL
- C max [2, 5]: 3011 ± 718 ng/mL
- T max [2, 5]: 1.0 ± 0.0 h
- AUC 0‐24 h [2, 6]: 8116 ng·h/mL
- C max [2, 6]: 3341 ng/mL
- T max [2, 6]: 1.0 h
- AUC 0‐24 h [2, 7]: 8188 ng·h/mL
- C max [2, 7]: 2681 ng/mL
- T max [2, 7]: 1.0 h
- AUC 0‐24 h [2, 8]: 6043 ng·h/mL
- C max [2, 8]: 2297 ng/mL
- T max [2, 8]: 1 h
- AUC 0‐24 h [2, 9]: 8620 ng·h/mL
- C max [2, 9]: 3176 ng/mL
- T max [2, 9]: 0.8 h
- AUC 0‐24 h [2, 10]: 7331 ± 1618 ng·h/mL
- C max [2, 10]: 2736 ± 525 ng/mL
- T max [2, 10]: 0.9 ± 0.3 h
- Blood level of HDL‐c ([3]; TE 2 mg/kg every 2 wks): only reduced in animals treated with 3 or 10 mg/kg
- Blood level of LDL‐c ([3]; TE 2 mg/kg every 2 wks): lower
- Blood level of TG ([3]; TE 2 mg/kg every 2 wks): lower
- Blood level of T‐chol ([3]; TE 2 mg/kg every 2 wks): lower
- Lp (a) protein level ([3]; TE 2 mg/kg every 2 wks): showed a tendency to be decreased
- HDL‐c/LDL‐c ratio [3]: did not cause any significant change
- Blood level of ALT [4]: not changed
- Blood level of AST [4]: not changed
